For 39 molecules, Ki results are on record in ChEMBL document CHEMBL4229332, “Novel multi-target azinesulfonamides of cyclic amine derivatives as potential antipsychotics with pro-social and pro-cognitive effects” (Eur J Med Chem, 2018).

What all share (assay): biochemical
Experiment [1] addresses 5-hydroxytryptamine receptor 6 (Homo sapiens, UniProt P50406).
Description: Displacement of [3H]-LSD from human 5-HT6R expressed in HEK293 cell membranes after 1 hr at 37 degC by microbeta counting method
Experiment [2] deals with 5-hydroxytryptamine receptor 2A (Homo sapiens, UniProt P28223). The class given is cell-based, CHO-K1.
Experiment [3] deals with T1, 5-hydroxytryptamine receptor 1A (Homo sapiens, UniProt P08908).
T1 sequence (P08908 whole entry): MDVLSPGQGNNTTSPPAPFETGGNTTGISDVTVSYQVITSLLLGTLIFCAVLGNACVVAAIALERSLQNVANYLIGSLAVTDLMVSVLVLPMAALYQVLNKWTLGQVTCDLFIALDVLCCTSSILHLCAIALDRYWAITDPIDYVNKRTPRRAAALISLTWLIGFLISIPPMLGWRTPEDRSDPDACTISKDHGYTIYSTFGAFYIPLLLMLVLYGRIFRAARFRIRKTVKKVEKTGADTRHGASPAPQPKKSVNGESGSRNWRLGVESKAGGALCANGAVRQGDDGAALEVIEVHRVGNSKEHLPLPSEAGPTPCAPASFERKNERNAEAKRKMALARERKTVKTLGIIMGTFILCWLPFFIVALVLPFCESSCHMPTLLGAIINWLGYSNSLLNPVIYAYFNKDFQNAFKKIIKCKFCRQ
Description: Displacement of [3H]-8-OH-DPAT from human 5-HT1AR expressed in HEK293 cell membranes after 1 hr by microbeta counting method

Experiment [4] has as its target 5-hydroxytryptamine receptor 7 (Homo sapiens, UniProt P34969).
Description: Displacement of [3H]-5-CT from human 5-HT7R expressed in HEK293 cell membranes after 1 hr at 37 degC by microbeta counting method

Structures are written as SMILES. pKi: −log10 of the molar value.

Sequence of 5-hydroxytryptamine receptor 6 (P50406 whole entry): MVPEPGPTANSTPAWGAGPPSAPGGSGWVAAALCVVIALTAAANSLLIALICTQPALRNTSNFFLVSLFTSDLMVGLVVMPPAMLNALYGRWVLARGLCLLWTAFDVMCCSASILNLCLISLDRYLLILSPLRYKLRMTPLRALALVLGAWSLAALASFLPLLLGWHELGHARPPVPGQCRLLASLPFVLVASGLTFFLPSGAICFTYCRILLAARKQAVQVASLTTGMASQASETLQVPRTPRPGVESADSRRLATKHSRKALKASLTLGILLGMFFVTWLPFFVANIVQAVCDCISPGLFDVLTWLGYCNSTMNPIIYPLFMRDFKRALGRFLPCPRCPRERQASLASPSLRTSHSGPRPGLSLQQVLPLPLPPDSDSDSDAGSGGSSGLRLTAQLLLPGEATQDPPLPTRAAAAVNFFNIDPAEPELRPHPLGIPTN
Sequence of 5-hydroxytryptamine receptor 2A (P28223 whole entry): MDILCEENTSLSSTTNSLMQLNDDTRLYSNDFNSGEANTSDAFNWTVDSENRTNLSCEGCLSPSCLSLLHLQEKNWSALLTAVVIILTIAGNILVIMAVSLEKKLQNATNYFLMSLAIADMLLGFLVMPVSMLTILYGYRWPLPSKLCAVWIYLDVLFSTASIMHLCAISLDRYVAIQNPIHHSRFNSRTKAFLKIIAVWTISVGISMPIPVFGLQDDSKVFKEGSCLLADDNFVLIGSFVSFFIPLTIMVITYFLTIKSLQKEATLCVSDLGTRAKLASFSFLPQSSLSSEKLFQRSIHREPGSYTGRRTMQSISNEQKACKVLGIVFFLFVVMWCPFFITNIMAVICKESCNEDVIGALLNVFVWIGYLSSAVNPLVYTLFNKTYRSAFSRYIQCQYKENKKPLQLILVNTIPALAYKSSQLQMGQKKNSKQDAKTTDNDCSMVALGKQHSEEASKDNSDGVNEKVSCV
Sequence of 5-hydroxytryptamine receptor 7 (P34969 whole entry): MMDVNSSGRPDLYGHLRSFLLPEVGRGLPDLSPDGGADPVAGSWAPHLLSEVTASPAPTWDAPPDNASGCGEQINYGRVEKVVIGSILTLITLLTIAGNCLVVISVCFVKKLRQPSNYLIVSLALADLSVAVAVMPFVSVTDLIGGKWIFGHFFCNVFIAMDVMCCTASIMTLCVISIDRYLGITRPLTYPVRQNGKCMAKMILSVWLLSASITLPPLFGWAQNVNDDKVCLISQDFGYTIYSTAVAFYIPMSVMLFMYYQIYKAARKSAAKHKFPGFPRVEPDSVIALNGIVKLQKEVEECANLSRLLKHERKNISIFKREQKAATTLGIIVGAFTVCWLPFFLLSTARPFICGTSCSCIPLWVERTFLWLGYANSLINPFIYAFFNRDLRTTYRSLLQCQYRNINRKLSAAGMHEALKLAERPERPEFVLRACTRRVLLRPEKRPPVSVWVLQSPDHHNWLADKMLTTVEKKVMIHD

As a reminder, the pKi is the negative decadic logarithm of the Ki, by convention in mol/L. Read a high pKi as a small Ki. `O=S(=O)(c1cncc2ccccc12)N1CC[C@@H]1CCN1CCN(c2nsc3ccccc23)CC1`: the negative logarithm of the Ki (pKi) was 6.46 in experiment [1], 7.62 in experiment [2], 7.25 in experiment [3] and 7.29 in experiment [4].
Consider `O=S(=O)(c1cncc2ccccc12)N1CCCCC[C@H]1CCN1CCN(c2cccc3sccc23)CC1`, for which the pKi in experiment [1] is 6.72; in experiment [2], 7.54; in experiment [3] it was 8.10; in experiment [4], 7.62.
Turning to `O=S(=O)(c1cncc2ccccc12)N1CCC[C@H]1CCN1CCN(c2noc3ccccc23)CC1`, the pKi was 6.30 in experiment [1], 7.48 in experiment [2], 7.02 in experiment [3] and 8.22 in experiment [4].
As to `O=S(=O)(c1cccc2ncccc12)N1CCC[C@@H]1CCN1CC=C(c2c[nH]c3ccc(Cl)cc23)CC1`, the pKi in experiment [1] was 7.74; in experiment [2], 5.94; in experiment [3] it was 7.04; in experiment [4], 7.92.
On to `O=c1[nH]c2c(N3CCN(CC[C@H]4CCCN4S(=O)(=O)c4cncc5ccccc45)CC3)cccc2o1`, for which the pKi was 5.74 in experiment [1], 5.71 in experiment [2], 7.44 in experiment [3] and 5.87 in experiment [4].
Consider `O=S(=O)(c1cccc2cnccc12)N1CCC[C@H]1CCN1CCN(c2cccc3sccc23)CC1`, for which the negative logarithm of the Ki (pKi) in experiment [1] is 7.14; in experiment [2], 8.05; in experiment [3], 8.00; in experiment [4], 7.64.
As for `O=S(=O)(c1cccc2ncccc12)N1CCC[C@@H]1CCN1CCN(c2nsc3ccccc23)CC1`, the negative-log Ki (pKi) was 7.42 in experiment [1], 7.68 in experiment [2] and 7.62 in experiment [3].
Regarding `O=c1[nH]c2c(N3CCN(CC[C@@H]4CCCN4S(=O)(=O)c4cncc5ccccc45)CC3)cccc2o1`, the pKi is 5.52 in experiment [1], 5.69 in experiment [2], 7.57 in experiment [3] and 6.17 in experiment [4].
Take `O=S(=O)(c1ccnc2ccccc12)N1CCCC[C@@H]1CCN1CCN(c2nsc3ccccc23)CC1`: the pKi in experiment [1] is 5.90; in experiment [2], 7.46; in experiment [3] it was 7.62; in experiment [4] it was 7.16.
On to `O=S(=O)(c1cncc2ccccc12)N1CCC[C@@H]1CCN1CCN(c2cccc3c2OCCO3)CC1`, for which the pKi in experiment [1] is 5.90; in experiment [2], 6.41; in experiment [3], 8.15; in experiment [4], 7.28.
Taken in the same sequence, the figures for `O=S(=O)(c1cccc2ncccc12)N1CCC[C@H]1CCN1CCN(c2cccc3sccc23)CC1` were 7.09, 7.44, 7.89 and 7.72.
Taken in the same sequence, the figures for `O=S(=O)(c1cccc2ncccc12)N1CCC[C@H]1CCN1CCN(c2cccc3[nH]ccc23)CC1` were 5.64, 6.61, 7.85 and 6.78.
Taken in the same sequence, the figures for `O=S(=O)(c1cccc2ncccc12)N1CCC[C@H]1CCN1CCC(c2noc3cc(F)ccc23)CC1` were 6.77, 7.92, 6.83 and 7.92.
In the case of `O=S(=O)(c1cccc2ncccc12)N1CCCCC[C@H]1CCN1CCN(c2nsc3ccccc23)CC1`, the negative logarithm of the Ki (pKi) was 6.34 in experiment [1], 7.52 in experiment [2], 7.32 in experiment [3] and 7.77 in experiment [4].
In the same order, the values of `O=S(=O)(c1cccc2cnccc12)N1CCC[C@H]1CCN1CCN(c2noc3ccccc23)CC1` are 7.04, 7.39, 7.07 and 8.00.
In the case of `O=S(=O)(c1cccc2ncccc12)N1CCC[C@@H]1CCN1CCN(c2cccc3sccc23)CC1`, the negative-log Ki (pKi) in experiment [1] is 7.89; in experiment [2], 7.25; in experiment [3] it was 7.82; in experiment [4] it was 9.00.
Take `O=S(=O)(c1cccc2ncccc12)N1CCC[C@@H]1CCN1CCN(c2cccc3c2OCCO3)CC1`: the pKi was 6.00 in experiment [1], 6.53 in experiment [2], 8.30 in experiment [3] and 7.18 in experiment [4].
With `O=S(=O)(c1cncc2ccccc12)N1CCC[C@H]1CCN1CCC(c2noc3cc(F)ccc23)CC1`, the pKi was 6.86 in experiment [1], 8.22 in experiment [2], 6.95 in experiment [3] and 9.40 in experiment [4].
`O=S(=O)(c1cccc2ncccc12)N1CCCC[C@@H]1CCN1CCN(c2nsc3ccccc23)CC1`: the pKi in experiment [1] is 6.02; in experiment [2] it was 7.54; in experiment [3], 7.55; in experiment [4] it was 7.28.
On to `O=S(=O)(c1cccc2ncccc12)N1CCC[C@@H]1CCN1CCN(c2cccc3[nH]ccc23)CC1`, for which the pKi was 6.19 in experiment [1], 6.35 in experiment [2], 8.30 in experiment [3] and 7.85 in experiment [4].
For `O=S(=O)(c1cncc2ccccc12)N1CCCC[C@@H]1CCN1CCN(c2cccc3sccc23)CC1`, the negative logarithm of the Ki (pKi) is 6.66 in experiment [1], 7.19 in experiment [2], 7.92 in experiment [3] and 7.49 in experiment [4].
On to `O=S(=O)(c1cccc2ncccc12)N1CCC[C@H]1CCN1CCN(c2cccc3c2OCCO3)CC1`, for which the pKi in experiment [1] was 5.60; in experiment [2] it was 6.96; in experiment [3], 8.22; in experiment [4], 6.46.
On to `O=S(=O)(c1cccc2ncccc12)N1CCC[C@H]1CCN1CCN(c2nsc3ccccc23)CC1`, for which the negative-log Ki (pKi) was 6.51 in experiment [1], 7.80 in experiment [2] and 7.60 in experiment [3].
As to `O=S(=O)(c1cccc2ncccc12)N1CCC[C@H]1CCN1CCN(c2noc3ccccc23)CC1`, the pKi is 6.54 in experiment [1], 7.31 in experiment [2], 6.75 in experiment [3] and 8.15 in experiment [4].
For the molecule `O=S(=O)(c1cncc2ccccc12)N1CCC[C@H]1CCN1CCN(c2cccc3[nH]ccc23)CC1`, the negative-log Ki (pKi) in experiment [1] is 5.69; in experiment [2], 7.09; in experiment [3], 8.10; in experiment [4], 7.12.
Turning to `O=S(=O)(c1cccc2ncccc12)N1CC[C@@H]1CCN1CCN(c2cccc3sccc23)CC1`, the negative logarithm of the Ki (pKi) in experiment [1] is 6.89; in experiment [2], 8.15; in experiment [3] it was 8.05; in experiment [4], 7.35.
Taken in the same sequence, the figures for `O=S(=O)(c1cccc2ncccc12)N1CCC[C@@H]1CCN1CCC(c2noc3cc(F)ccc23)CC1` were 7.35, 8.30, 6.92 and 7.92.
As for `O=S(=O)(c1cccc2cnccc12)N1CCC[C@@H]1CCN1CCN(c2cccc3sccc23)CC1`, the negative logarithm of the Ki (pKi) was 8.05 in experiment [1], 7.72 in experiment [2], 7.89 in experiment [3] and 8.52 in experiment [4].
Consider `O=S(=O)(c1ccnc2ccccc12)N1CCCCC[C@H]1CCN1CCN(c2nsc3ccccc23)CC1`, for which the pKi in experiment [1] was 6.21; in experiment [2] it was 7.59; in experiment [3] it was 7.30; in experiment [4] it was 7.72.
In the case of `O=S(=O)(c1cccc2ncccc12)N1CCCCC[C@H]1CCN1CCN(c2cccc3sccc23)CC1`, the pKi in experiment [1] was 6.75; in experiment [2] it was 7.29; in experiment [3] it was 7.92; in experiment [4] it was 7.72.
With `O=S(=O)(c1cncc2ccccc12)N1CCC[C@H]1CCN1CCN(c2cccc3c2OCCO3)CC1`, the negative logarithm of the Ki (pKi) was 5.83 in experiment [1], 7.04 in experiment [2], 8.22 in experiment [3] and 6.85 in experiment [4].
Consider `O=S(=O)(c1cncc2ccccc12)N1CCC[C@@H]1CCN1CC=C(c2c[nH]c3ccc(Cl)cc23)CC1`, for which the pKi in experiment [1] was 7.64; in experiment [2] it was 5.72; in experiment [3], 6.83; in experiment [4] it was 8.10.
For `O=c1[nH]c2c(N3CCN(CC[C@@H]4CCCN4S(=O)(=O)c4cccc5ncccc45)CC3)cccc2o1`, the negative logarithm of the Ki (pKi) in experiment [1] was 5.41; in experiment [2], 5.61; in experiment [3] it was 7.64; in experiment [4] it was 5.95.
Turning to `O=S(=O)(c1cccc2ncccc12)N1CC[C@@H]1CCN1CCN(c2nsc3ccccc23)CC1`, the pKi in experiment [1] was 6.46; in experiment [2] it was 7.52; in experiment [3] it was 7.27; in experiment [4] it was 7.24.
Regarding `O=S(=O)(c1cncc2ccccc12)N1CCC[C@H]1CCN1CC=C(c2c[nH]c3ccc(Cl)cc23)CC1`, the pKi in experiment [1] was 7.22; in experiment [2], 6.62; in experiment [3], 7.18; in experiment [4] it was 7.01.
In the same order, the values of `O=S(=O)(c1cncc2ccccc12)N1CCC[C@@H]1CCN1CCN(c2cccc3[nH]ccc23)CC1` are 6.12, 7.12, 8.22 and 8.40.
Consider `O=S(=O)(c1cccc2ncccc12)N1CCC[C@H]1CCN1CC=C(c2c[nH]c3ccc(Cl)cc23)CC1`, for which the pKi in experiment [1] was 7.11; in experiment [2], 5.85; in experiment [3], 6.84; in experiment [4], 7.19.
For `O=S(=O)(c1cccc2ncccc12)N1CCCC[C@@H]1CCN1CCN(c2cccc3sccc23)CC1`, the negative logarithm of the Ki (pKi) in experiment [1] is 6.47; in experiment [2], 7.46; in experiment [3], 7.82; in experiment [4], 7.66.
On to `O=S(=O)(c1cncc2ccccc12)N1CC[C@@H]1CCN1CCN(c2cccc3sccc23)CC1`, for which the negative logarithm of the Ki (pKi) in experiment [1] is 6.98; in experiment [2], 7.80; in experiment [3] it was 7.80; in experiment [4], 7.51.
